Data reported in PubChem BioAssay AID210 (DTP/NCI, 2004).
Values joined by “and” are separate entries in the source; they are usually repeats but may differ in a detail not shown here. Equal entries are not always repeated. Inconclusive results and toxic doses are left out.

Test system: CD2F1 mice, ip Colon 26 adenocarcinoma, median survival T/C
Test: NCI In Vivo Anticancer Drug Screen. Data for tumor model Colon 26 Adenocarcinoma (intraperitoneal) in CD2F1 (CDF1) mice
Conditions: endpoint: median survival time, higher = longer survival
Method: The antitumor activity of compounds was measured in mice bearing transplantable tumors. Survival or tumor size were measured and the results are expressed as the measurement made in the treated group (T) divided by the measurement made in the vehicle treated control group (C). The tumor model used in this assay is Colon 26 Adenocarcinoma (intraperitoneal) in CD2F1 (CDF1) mice

[1] = dose: 4.0 mg/kg/injection, schedule: Q01DX009 (ip), vehicle: acid diluted with saline
[2] = dose: 8.0 mg/kg/injection, schedule: Q01DX009 (ip), vehicle: acid diluted with saline
[3] = dose: 16.0 mg/kg/injection, schedule: Q01DX009 (ip), vehicle: acid diluted with saline
[4] = dose: 400.0 mg/kg/injection, schedule: Q04DX003 (ip), vehicle: saline with Tween-80
[5] = dose: 4.0 mg/kg/injection, schedule: Q01DX009 (ip), vehicle: saline
[6] = dose: 8.0 mg/kg/injection, schedule: Q01DX009 (ip), vehicle: saline
[7] = dose: 16.0 mg/kg/injection, schedule: Q01DX009 (ip), vehicle: saline
[8] = dose: 50.0 mg/kg/injection, schedule: Q04DX003 (ip), vehicle: saline
[9] = dose: 100.0 mg/kg/injection, schedule: Q04DX003 (ip), vehicle: saline
[10] = dose: 200.0 mg/kg/injection, schedule: Q04DX003 (ip), vehicle: saline
[11] = dose: 400.0 mg/kg/injection, schedule: Q04DX003 (ip), vehicle: saline
[12] = dose: 12.5 mg/kg/injection, schedule: Q04DX003 (ip), vehicle: saline with Tween-80
[13] = dose: 25.0 mg/kg/injection, schedule: Q04DX003 (ip), vehicle: saline with Tween-80
[14] = dose: 50.0 mg/kg/injection, schedule: Q04DX003 (ip), vehicle: saline with Tween-80
[15] = dose: 100.0 mg/kg/injection, schedule: Q04DX003 (ip), vehicle: saline with Tween-80
[16] = dose: 200.0 mg/kg/injection, schedule: Q04DX003 (ip), vehicle: saline with Tween-80

Structure (SMILES): O=P1(N(CCCl)CCCl)NCCCO1 (stereo not drawn)
- T/C (dose: 50.0 mg/kg/injection, schedule: Q03DX002 (ip), vehicle: saline): 106 % of control
- T/C (dose: 51.0 mg/kg/injection, schedule: Q07DX003 (ip), vehicle: saline): 119 % of control
- T/C (dose: 100.0 mg/kg/injection, schedule: Q03DX002 (ip), vehicle: saline): 117 % of control
- T/C (dose: 105.0 mg/kg/injection, schedule: Q07DX003 (ip), vehicle: saline): 154 % of control
- T/C (dose: 150.0 mg/kg/injection, schedule: Q07DX003 (ip), vehicle: saline): 165 % of control

Structure (SMILES): CCCNCCNc1ccc(NCCNCCC)c2c1C(=O)c1ccccc1C2=O
- T/C [1]: 106 % of control
- T/C [2]: 98 % of control
- T/C [3]: 100 % of control

Structure (SMILES): CCOC(=O)CNC(=O)CCCCSc1ncnc2nc[nH]c12
- T/C [4]: 104 % of control
- T/C (dose: 800.0 mg/kg/injection, schedule: Q04DX003 (ip), vehicle: saline with Tween-80): 97 % of control
- T/C (dose: 1600.0 mg/kg/injection, schedule: Q04DX003 (ip), vehicle: saline with Tween-80): 88 % of control

Structure (SMILES): CCc1c(CC(=O)O)c2cc(C)ccc2n1Cc1ccc(Cl)cc1
- T/C (dose: 6.25 mg/kg/injection, schedule: Q04DX003 (ip), vehicle: Klucel (hydroxypropylcellulose) (HPC)): 89 % of control
- T/C (dose: 12.5 mg/kg/injection, schedule: Q04DX003 (ip), vehicle: Klucel (hydroxypropylcellulose) (HPC)): 95 % of control
- T/C (dose: 25.0 mg/kg/injection, schedule: Q04DX003 (ip), vehicle: Klucel (hydroxypropylcellulose) (HPC)): 97 % of control
- T/C (dose: 50.0 mg/kg/injection, schedule: Q04DX003 (ip), vehicle: Klucel (hydroxypropylcellulose) (HPC)): 100 % of control
- T/C (dose: 100.0 mg/kg/injection, schedule: Q04DX003 (ip), vehicle: Klucel (hydroxypropylcellulose) (HPC)): 111 % of control

Structure (SMILES): NCCNc1ccc(NCCN)c2c1C(=O)c1ccccc1C2=O
- T/C (dose: 1.5 mg/kg/injection, schedule: Q01DX009 (ip), vehicle: acid diluted with saline): 171 % of control
- T/C (dose: 2.0 mg/kg/injection, schedule: Q01DX009 (ip), vehicle: acid diluted with saline): 164 % of control
- T/C (dose: 3.0 mg/kg/injection, schedule: Q01DX009 (ip), vehicle: acid diluted with saline): 263 % of control
- T/C [1]: 175 % of control
- T/C (dose: 6.0 mg/kg/injection, schedule: Q01DX009 (ip), vehicle: acid diluted with saline): 254 % of control
- T/C [2]: 213 % of control
- T/C (dose: 12.0 mg/kg/injection, schedule: Q01DX009 (ip), vehicle: acid diluted with saline): 214 % of control
- T/C [3]: 227 % of control

Structure (SMILES): CN(C)CCCNc1ccc(NCCCN(C)C)c2c1C(=O)c1ccccc1C2=O
- T/C [5]: 101 % of control
- T/C [6]: 106 % of control
- T/C [7]: 100 % of control
- T/C (dose: 32.0 mg/kg/injection, schedule: Q01DX009 (ip), vehicle: saline): 97 % of control

Structure (SMILES): COc1c(O)c2c(c3cc(C(=O)N4CCc5c4c(O)c(OC)c4[nH]c(C(=O)N6CC7CC78C6=CC(=O)c6[nH]cc(C)c68)cc54)[nH]c13)CCN2C(N)=O (stereo not drawn)
- T/C (dose: 6.3 micrograms/kg/injection, schedule: Q01DX009 (ip), vehicle: saline): 104 % of control
- T/C (dose: 12.5 micrograms/kg/injection, schedule: Q01DX009 (ip), vehicle: saline): 99 % of control
- T/C (dose: 25.0 micrograms/kg/injection, schedule: Q01DX009 (ip), vehicle: saline): 115 % of control
- T/C (dose: 50.0 micrograms/kg/injection, schedule: Q01DX009 (ip), vehicle: saline): 150 % of control
- T/C (dose: 100.0 micrograms/kg/injection, schedule: Q01DX009 (ip), vehicle: saline): 123 % of control

Structure (SMILES): COc1cc2oc(=O)ccc2cc1[C@@H]1OC(=O)C2(C)O[C@@H]12 (stereo partly drawn)
- T/C (dose: 0.15 mg/kg/injection, schedule: Q01DX009 (ip), vehicle: water): 91 % of control
- T/C (dose: 0.31 mg/kg/injection, schedule: Q01DX009 (ip), vehicle: water): 106 % of control
- T/C (dose: 0.62 mg/kg/injection, schedule: Q01DX009 (ip), vehicle: water): 111 % of control
- T/C (dose: 1.25 mg/kg/injection, schedule: Q01DX009 (ip), vehicle: water): 94 % of control
- T/C (dose: 2.5 mg/kg/injection, schedule: Q01DX009 (ip), vehicle: water): 88 % of control
- T/C (dose: 5.0 mg/kg/injection, schedule: Q01DX009 (ip), vehicle: water): 90 % of control
- T/C (dose: 10.0 mg/kg/injection, schedule: Q01DX009 (ip), vehicle: water): 102 % of control

Structure (SMILES): Cc1c(N)nc([C@H](CC(N)=O)NC[C@H](N)C(N)=O)nc1C(=O)N[C@H](C(=O)N[C@H](C)[C@@H](O)[C@H](C)C(=O)N[C@H](C(=O)NCCc1nc(-c2nc(C(=O)NCCC[S+](C)C)cs2)cs1)[C@@H](C)O)C(OC1OC(CO)C(O)C(O)C1OC1OC(CO)C(O)C(OC(N)=O)C1O)c1cnc[nH]1 (stereo partly drawn)
- T/C (dose: 1.0 mg/kg/injection, schedule: Q01DX009 (ip), vehicle: saline): 115 % of control
- T/C (dose: 2.0 mg/kg/injection, schedule: Q01DX009 (ip), vehicle: saline): 111 % of control
- T/C [5]: 107 % of control
- T/C [6]: 111 % of control
- T/C [7]: 111 % of control

Structure (SMILES): CC(=O)OC1C2(CC3N4C(=O)C5(CO)SSC4(CC31O)C(=O)N5C)OC(C)C(C)(C)C2=O (stereo not drawn)
- T/C (dose: 1.25 mg/kg/injection, schedule: Q04DX002 (ip), vehicle: saline): 97 % of control
- T/C (dose: 2.5 mg/kg/injection, schedule: Q04DX002 (ip), vehicle: saline): 108 % of control
- T/C (dose: 5.0 mg/kg/injection, schedule: Q04DX002 (ip), vehicle: saline): 87 % of control

Structure (SMILES): O=C1NC(O)CCN1C1OC(CO)C(O)C1O (stereo not drawn)
- T/C [8]: 101 % of control
- T/C [9]: 101 % of control
- T/C [10]: 98 % of control
- T/C [11]: 100 % of control
- T/C (dose: 800.0 mg/kg/injection, schedule: Q04DX003 (ip), vehicle: saline): 108 % of control

Structure (SMILES): COc1ccc2cc1Oc1ccc(cc1)C[C@H]1c3cc(c(OC)cc3CCN1C)Oc1c(OC)c(OC)cc3c1[C@H](C2)N(C)CC3
- T/C [12]: 92 % of control
- T/C [13]: 101 % of control
- T/C [14]: 92 % of control
- T/C [15]: 94 % of control
- T/C [16]: 101 % of control

Structure (SMILES): Cc1c[nH]c(=O)[nH]c1=O
- T/C (dose: 16.0 mg/kg/injection, schedule: Q04DX002 (ip), vehicle: Klucel (hydroxypropylcellulose) (HPC)): 97 % of control
- T/C (dose: 32.0 mg/kg/injection, schedule: Q04DX002 (ip), vehicle: Klucel (hydroxypropylcellulose) (HPC)): 101 % of control
- T/C (dose: 64.0 mg/kg/injection, schedule: Q04DX002 (ip), vehicle: Klucel (hydroxypropylcellulose) (HPC)): 101 % of control and 94 % of control and 96 % of control
- T/C (dose: 128.0 mg/kg/injection, schedule: Q04DX002 (ip), vehicle: Klucel (hydroxypropylcellulose) (HPC)): 101 % of control and 88 % of control and 95 % of control
- T/C (dose: 256.0 mg/kg/injection, schedule: Q04DX002 (ip), vehicle: Klucel (hydroxypropylcellulose) (HPC)): 110 % of control and 92 % of control and 97 % of control
- T/C (dose: 512.0 mg/kg/injection, schedule: Q04DX002 (ip), vehicle: Klucel (hydroxypropylcellulose) (HPC)): 91 % of control
- T/C (dose: 1024.0 mg/kg/injection, schedule: Q04DX002 (ip), vehicle: Klucel (hydroxypropylcellulose) (HPC)): 86 % of control

Structure (SMILES): O=C1c2ccccc2C(=O)c2c(NCCCNCCO)ccc(NCCCNCCO)c21
- T/C [3]: 107 % of control
- T/C (dose: 32.0 mg/kg/injection, schedule: Q01DX009 (ip), vehicle: acid diluted with saline): 111 % of control
- T/C (dose: 64.0 mg/kg/injection, schedule: Q01DX009 (ip), vehicle: acid diluted with saline): 123 % of control

Structure (SMILES): CCSC(=O)N1c2ccc(OC)cc2C=CC1C#N (stereo not drawn)
- T/C [12]: 106 % of control
- T/C [13]: 104 % of control
- T/C [14]: 110 % of control
- T/C [15]: 107 % of control
- T/C (dose: 175.0 mg/kg/injection, schedule: Q04DX002 (ip), vehicle: saline with Tween-80): 110 % of control
- T/C [16]: 109 % of control
- T/C (dose: 350.0 mg/kg/injection, schedule: Q04DX002 (ip), vehicle: saline with Tween-80): 124 % of control
- T/C [4]: 115 % of control
- T/C (dose: 700.0 mg/kg/injection, schedule: Q04DX002 (ip), vehicle: saline with Tween-80): 100 % of control
- T/C (dose: 1400.0 mg/kg/injection, schedule: Q04DX002 (ip), vehicle: saline with Tween-80): 98 % of control

Structure (SMILES): COc1cc(C[C@H]2c3cc(OC)c(OC)cc3CCN2C)c(Oc2cc3c(cc2OC)-c2c(OC)c(OC)cc4c2[C@H](C3)N(C)CC4)cc1OC
- T/C (dose: 25.0 mg/kg/injection, schedule: Q04DX003 (ip), vehicle: saline): 89 % of control
- T/C [8]: 95 % of control
- T/C [9]: 90 % of control
- T/C [10]: 93 % of control
- T/C [11]: 95 % of control
